Results taken from patent US6083944A, “Quinoline-containing α-ketoamide cysteine and serine protease inhibitors” (Cephalon, Inc., priority 1998, dated 2000).
pIC50: −log10 of the molar value.

Biological target: T1, Recombinant human calpain I (Homo sapiens, UniProt P07384)
T1 construct: made in house
T1 sequence (P07384 1-714): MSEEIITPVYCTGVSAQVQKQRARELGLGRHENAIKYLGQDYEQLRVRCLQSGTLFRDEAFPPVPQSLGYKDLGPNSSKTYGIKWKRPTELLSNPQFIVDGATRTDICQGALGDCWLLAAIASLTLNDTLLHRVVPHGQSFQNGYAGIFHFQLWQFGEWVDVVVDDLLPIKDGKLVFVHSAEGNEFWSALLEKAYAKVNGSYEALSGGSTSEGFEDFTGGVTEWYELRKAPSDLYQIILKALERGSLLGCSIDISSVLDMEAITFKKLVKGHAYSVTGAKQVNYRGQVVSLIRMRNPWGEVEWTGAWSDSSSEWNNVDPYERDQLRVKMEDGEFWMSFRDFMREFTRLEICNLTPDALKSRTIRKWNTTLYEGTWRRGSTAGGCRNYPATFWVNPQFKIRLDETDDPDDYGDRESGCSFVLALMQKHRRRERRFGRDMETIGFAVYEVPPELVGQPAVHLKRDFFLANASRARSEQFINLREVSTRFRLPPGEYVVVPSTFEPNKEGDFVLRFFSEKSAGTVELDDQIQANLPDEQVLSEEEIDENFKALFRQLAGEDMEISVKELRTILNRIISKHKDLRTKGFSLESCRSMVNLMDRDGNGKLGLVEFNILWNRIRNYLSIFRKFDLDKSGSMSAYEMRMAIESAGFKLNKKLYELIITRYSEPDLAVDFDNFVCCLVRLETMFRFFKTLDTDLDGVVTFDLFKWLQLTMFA
Test: Inhibition of calpain I (Succ-Leu-Tyr-MNA hydrolysis)
Assay type: biochemical
Settings: for inhibition at 10 µM: values in parentheses, at 10,000 nM
Protocol: To evaluate inhibitory activity, stock solutions (40 times concentrated) of each compound to be tested were prepared in 100% anhydrous DMSO and 5 μl of each inhibitor preparation was aliquoted into each of three wells of a 96-well plate. Recombinant human calpain I, prepared by the method of Meyer et al. (Biochem. J. 1996, 314: 511-519), was diluted into assay buffer (i.e., 50 mM Tris, 50 mM NaCl, 1 mM EDTA, 1 mM EGTA, and 5 mM β-mercaptoethanol, pH 7.5, including 0.2 mM Succ-Leu-Tyr-MNA), and 175 μl was aliquoted into the same wells containing the independent inhibitor stocks as well as to positive control wells containing 5 μl DMSO, but no compound. To start the reaction, 20 μl of 50 mM CaCl2 in assay buffer was added to all wells of the plate, excepting three, which were used as background signal baseline controls. Substrate hydrolysis was monitored every 5 minutes for a total of 30 minutes. Substrate hydrolysis in the absence of inhibitor was linear for up to 15 minutes.
Inhibition of calpain I activity was calculated as the percent decrease in the rate of substrate hydrolysis in the presence of inhibitor relative to the rate in its absence. Comparison between the inhibited and control rates was made within the linear range for substrate hydrolysis. The IC50 S of inhibitors (concentration yielding 50% inhibition) were determined from the percent decrease in rates of substrate hydrolysis in the presence of five to seven different concentrations of the test compound. The results were plotted as percent inhibition versus log inhibitor concentration, and the IC50 was calculated by fitting the data to the four-parameter logistic equation shown below using the program GraphPad Prism (GraphPad Software, Inc., San Diego, Calif.).
The parameters a, b, c, and d are defined as follows: a is % inhibition in the absence of inhibitor, b is the slope, c is the IC50, and d is the % inhibition at an infinite concentration of inhibitor.

pIC50 (Tables 2-4, pH 7.5) | inhibition at 10 µM (Tables 2-4) | SMILES | other results
7.85 | – | O=C(NCCNS(=O)(=O)c1ccc(-c2ccccn2)s1)C(=O)[C@H](Cc1ccccc1)NC(=O)c1cc(Cl)nc2ccccc12 [Example 144] | –
– | 84% | O=C(NCCCCCCNS(=O)(=O)c1cccc2c(Cl)cccc12)C(=O)C(Cc1ccccc1)NC(=O)c1cc(C#Cc2ccccc2)nc2ccccc12 (stereo not shown) [Example 101] | –
– | 93% | CC(C)(C)OC(=O)CCNC(=O)C(=O)C(Cc1ccccc1)NC(=O)c1cc(C#Cc2ccccc2)nc2ccccc12 (stereo not shown) [Example 107] | –
– | 85% | O=C(NC1CCCCC1)C(=O)C(Cc1ccccc1)NC(=O)c1cc(C#Cc2ccccc2)nc2ccccc12 (stereo not shown) [Example 30] | –
– | 100% | CC(C)(C)OC(=O)NCCCNC(=O)C(=O)C(Cc1ccccc1)NC(=O)c1cc(C#Cc2ccccc2)nc2ccccc12 (stereo not shown) [Example 97] | –
– | 100% | O=C(NCC1CC1)C(=O)C(Cc1ccccc1)NC(=O)c1cc(C#Cc2ccccc2)nc2ccccc12 (stereo not shown) [Example 4] | –
6.74 | – | CS(=O)(=O)NCCNC(=O)C(=O)C(Cc1ccccc1)NC(=O)c1cc(C#Cc2ccccc2)nc2ccccc12 (stereo not shown) [Example 93] | –
6.24 | – | COCCOCCCNC(=O)C(=O)C(Cc1ccccc1)NC(=O)c1cc(C#Cc2ccccc2)nc2ccccc12 (stereo not shown) [Example 8] | –
– | 41% | O=C(NC12CC3CC(CC(C3)C1)C2)C(=O)C(Cc1ccccc1)NC(=O)c1cc(C#Cc2ccccc2)nc2ccccc12 (stereo not shown) [Example 15] | –
– | 92% | COC(CNC(=O)C(=O)C(CC(C)C)NC(=O)c1cc(C#Cc2ccccc2)nc2ccccc12)OC (stereo not shown) [Example 113] | –
7.25 | – | O=C(NCCNS(=O)(=O)c1cccnc1)C(=O)[C@H](Cc1ccccc1)NC(=O)c1cc(C#Cc2ccccc2)nc2ccccc12 [Example 87] | –
6.59 | – | O=C(NCCNC(=O)C(=O)C(Cc1ccccc1)NC(=O)c1cc(C#Cc2ccccc2)nc2ccccc12)NC12CC3CC(CC(C3)C1)C2 (stereo not shown) [Example 63] | –
– | 91% | O=C(NCc1cccnc1)C(=O)C(Cc1ccccc1)NC(=O)c1cc(C#Cc2ccccc2)nc2ccccc12 (stereo not shown) [Example 46] | –
6.41 | – | O=C(NCCc1ccccc1)C(=O)C(Cc1ccccc1)NC(=O)c1cc(C#Cc2ccccc2)nc2ccccc12 (stereo not shown) [Example 43] | –
6.18 | – | COC(=O)C(Cc1ccccc1)NC(=O)C(=O)C(Cc1ccccc1)NC(=O)c1cc(C#Cc2ccccc2)nc2ccccc12 (stereo not shown) [Example 109] | –
7.12 | – | O=C(NCCNS(=O)(=O)c1cccs1)C(=O)C(Cc1ccccc1)NC(=O)c1cc(C#Cc2ccccc2)nc2ccccc12 (stereo not shown) [Example 90] | –
– | 89% | CC(C)CC(NC(=O)c1cc(C#Cc2ccccc2)nc2ccccc12)C(=O)C(=O)NCCNC(=O)Nc1ccccc1 (stereo not shown) [Example 116] | –
– | 75% | O=C(NC(CO)Cc1ccccc1)C(=O)C(Cc1ccccc1)NC(=O)c1cc(C#Cc2ccccc2)nc2ccccc12 (stereo not shown) [Example 23] | –
6.80 | – | COc1ccc2[nH]cc(CCNC(=O)C(=O)C(Cc3ccccc3)NC(=O)c3cc(C#Cc4ccccc4)nc4ccccc34)c2c1 (stereo not shown) [Example 49] | –
– | 97% | O=C(NCCNS(=O)(=O)c1ccccc1)C(=O)C(Cc1ccccc1)NC(=O)c1ccnc2ccccc12 (single isomer, unassigned) [Example 131] | –
– | 99% | O=C(NCCNS(=O)(=O)c1ccccc1)C(=O)C(Cc1ccccc1)NC(=O)c1cc(-c2cccnc2)nc2ccccc12 (stereo not shown) [Example 136] | –
6.89 | – | CS(=O)(=O)NCCCNC(=O)C(=O)C(Cc1ccccc1)NC(=O)c1cc(C#Cc2ccccc2)nc2ccccc12 (stereo not shown) [Example 99] | –

Further lines, the compound ahead of its results:

SMILES | pIC50 (Tables 2-4, pH 7.5) | inhibition at 10 µM (Tables 2-4) | other results
O=C(NCC1CCCO1)C(=O)C(Cc1ccccc1)NC(=O)c1cc(C#Cc2ccccc2)nc2ccccc12 (stereo not shown) [Example 54] | – | 84% | –
O=C(NOCCNS(=O)(=O)c1ccccc1)C(=O)C(Cc1ccccc1)NC(=O)c1cc(C#Cc2ccccc2)nc2ccccc12 (stereo not shown) [Example 105] | 6.89 | – | –
CCCCC(NC(=O)c1cc(Cl)nc2ccccc12)C(=O)C(=O)NCCNS(=O)(=O)c1ccc([N+](=O)[O-])cc1 (stereo not shown) [Example 149] | – | – | pIC50 (Table 5, head prints no unit): 7.64
CCCCC(NC(=O)c1cc(Cl)nc2ccccc12)C(=O)C(=O)NCCNS(=O)(=O)c1ccc(Cl)c(Cl)c1 (stereo not shown) [Example 151] | – | – | pIC50 (Table 5, head prints no unit): 6.66
C=C(C)C(=O)OCCNC(=O)C(=O)C(Cc1ccccc1)NC(=O)c1cc(C#Cc2ccccc2)nc2ccccc12 (stereo not shown) [Example 111] | – | 95% | –
O=C(NCc1ccc2c(c1)OCO2)C(=O)C(Cc1ccccc1)NC(=O)c1cc(C#Cc2ccccc2)nc2ccccc12 (stereo not shown) [Example 33] | 6.41 | – | –
COCC(NC(=O)c1cc(Cl)nc2ccccc12)C(=O)C(=O)NCCNS(=O)(=O)c1ccc(-c2ccccn2)s1 (stereo not shown) [Example 157] | – | – | pIC50 (Table 5, head prints no unit): 7.21
CC(C)CC(NC(=O)c1cc(C#Cc2ccccc2)nc2ccccc12)C(=O)C(=O)NCCOCCO (stereo not shown) [Example 114] | – | 93% | –
COc1ccc(CCNC(=O)C(=O)C(Cc2ccccc2)NC(=O)c2cc(C#Cc3ccccc3)nc3ccccc23)cc1OC (stereo not shown) [Example 41] | – | 88% | –
O=C(NCCCCO)C(=O)C(Cc1ccccc1)NC(=O)c1cc(C#Cc2ccccc2)nc2ccccc12 (stereo not shown) [Example 13] | – | 100% | –
O=C(NCCNS(=O)(=O)Cc1ccccc1)C(=O)C(Cc1ccccc1)NC(=O)c1cc(C#Cc2ccccc2)nc2ccccc12 (stereo not shown) [Example 92] | 7.03 | – | –
O=C(NCCNC(=O)[C@@H]1CCCN1S(=O)(=O)c1ccccc1)C(=O)C(Cc1ccccc1)NC(=O)c1cc(C#Cc2ccccc2)nc2ccccc12 (stereo partly shown) [Example 108] | – | 94% | –
CCCCNC(=O)C(=O)C(Cc1ccccc1)NC(=O)c1cc(C=Cc2ccccc2)nc2ccccc12 (stereo not shown) [Example 130] | 6.98 | – | –
O=C(NCC(c1ccccc1)c1ccccc1)C(=O)C(Cc1ccccc1)NC(=O)c1cc(C#Cc2ccccc2)nc2ccccc12 (stereo not shown) [Example 44] | – | 85% | –
O=C(NC1Cc2ccccc2C1)C(=O)C(Cc1ccccc1)NC(=O)c1cc(C#Cc2ccccc2)nc2ccccc12 (stereo not shown) [Example 55] | – | 60% | –
CC(C)CC(NC(=O)c1cc(C#Cc2ccccc2)nc2ccccc12)C(=O)C(=O)NCCCNS(=O)(=O)c1ccccc1 (stereo not shown) [Example 119] | – | 80% | –
O=C(NC1CCCCC1O)C(=O)C(Cc1ccccc1)NC(=O)c1cc(C#Cc2ccccc2)nc2ccccc12 (stereo not shown) [Example 28] | – | 61% | –
CCCCC(NC(=O)c1cc(Cl)nc2ccccc12)C(=O)C(=O)NCCNS(=O)(=O)c1ccc(-c2ccccn2)s1 (stereo not shown) [Example 155] | – | – | pIC50 (Table 5, head prints no unit): 7.51
O=C(NCCNS(=O)(=O)c1ccc(-c2ccccn2)s1)C(=O)C(Cc1ccccc1)NC(=O)c1nc(-c2ccccc2)nc2ccccc12 (stereo not shown) [Example 154] | – | – | pIC50 (Table 5, head prints no unit): 7.08
COc1ccc(C(=O)NCCNC(=O)C(=O)C(Cc2ccccc2)NC(=O)c2cc(C#Cc3ccccc3)nc3ccccc23)cc1 (stereo not shown) [Example 57] | – | 71% | –
COCCNC(=O)C(=O)C(Cc1ccccc1)NC(=O)c1cc(C#Cc2ccccc2)nc2ccccc12 (stereo not shown) [Example 11] | 6.32 | – | –
Cc1cc(C(=O)NC(Cc2ccccc2)C(=O)C(=O)NCCNS(=O)(=O)c2ccc(-c3ccccn3)s2)c2ccccc2n1 (single isomer, unassigned) [Example 142] | 7.62 | – | –
O=C(NC1CCCCNC1=O)C(=O)C(Cc1ccccc1)NC(=O)c1cc(C#Cc2ccccc2)nc2ccccc12 (stereo not shown) [Example 22] | 7.11 | – | –
CC(=O)NCCNC(=O)C(=O)C(Cc1ccccc1)NC(=O)c1cc(C#Cc2ccccc2)nc2ccccc12 (stereo not shown) [Example 60] | 6.85 | – | –
O=C(NCCCO)C(=O)C(Cc1ccccc1)NC(=O)c1cc(C#Cc2ccccc2)nc2ccccc12 (stereo not shown) [Example 12] | – | 94% | –
COCC(NC(=O)c1cc(Cl)nc2ccccc12)C(=O)C(=O)NCCNS(=O)(=O)c1ccccc1 (stereo not shown) [Example 158] | – | – | Calpain I IC50 ** (value in parentheses: % inhibition) (Table 5, ** explained as 10,000 nM only in footnotes to Tables 2-4): 94%
COc1ccc2nc(C)cc(C(=O)NC(Cc3ccccc3)C(=O)C(=O)NCCNS(=O)(=O)c3ccc(-c4ccccn4)s3)c2c1 (single isomer, unassigned) [Example 143] | 7.46 | – | –
